Counter-ions that a name gives are not always drawn. Like-named read-outs stand apart in the source and are kept apart here.
Assays:
D-1 receptor = assay: D-1 antagonist activity in adenylate cyclase assay (antagonism of dopamine-induced increase in cAMP); format: biochemical; conditions: 10 μM dopamine; goldfish retina or rat striatum homogenate
Protocol: The functional activity of a compound was determined by assaying, in vitro, its ability to either stimulate the enzyme adenylate cyclase to produce more cAMP (agonist activity) or to antagonize a dopamine-induced increase in cAMP levels. The protocol for the adenylate cyclase assays was described by K. J. Watling and J. E. Dowling in J Neurochemistry, 1981, 36: 599 and by J. W. Kebabian, et al. in Proc Natl Acad Sci, USA, 1972, 69: 2145. In order to determine agonist activity, cell-free tissue homogenates are incubated in an ionic buffer solution containing ATP and the compound being evaluated. The tissue was obtained from either goldfish retina or rat striatum.
The Ki values were calculated as described by Y. C.

dopamine D-2 receptor = biological target: T1, dopamine D-2 receptor (Rattus norvegicus, UniProt P61169); assay: D-2 receptor binding assay, competition with [^3 H]-spiperone in homogenized rat caudate; conditions: rat caudate homogenate
T1 construct: Homogenized rat caudate was the source of the D-2 receptors; from tissue; host or cells: rat caudate homogenate
Protocol: Homogenized rat caudate was the source of the D-2 receptors. […] A. Frey, T. E. Cote, C. […] The molar affinity of the compound for the receptor binding site was calculated by the same method used for the D-1 receptor assay, assuming a competitive interaction between the compound and the radiolabeled ligand.

dopamine D-1 receptor [1] = biological target: T2, dopamine D-1 receptor (Rattus norvegicus, UniProt P18901); assay: D-1 receptor binding assay, competition with [^125 I]SCH-23982 in homogenized rat caudate
Source text: The compounds compete with the radiolabeled ligand for occupancy of the receptors and the molar potency of each compound was quantified.

dopamine D-1 receptor [2] = biological target: T2, dopamine D-1 receptor; assay: Rotation behavior: block of A-68930-induced rotation in rats with unilateral 6-hydroxydopamine lesion; format: in vivo; parameters: Homogenized rat caudate was incubated; from tissue; host or cells: rat caudate homogenate; conditions: subcutaneous, A-68930 1.0 μmol/kg s.c.
[3] = dose 10.0 μmol/kg, saline 1118 (Example 18), 1011 (Example 27)

T1 sequence (P61169 whole entry): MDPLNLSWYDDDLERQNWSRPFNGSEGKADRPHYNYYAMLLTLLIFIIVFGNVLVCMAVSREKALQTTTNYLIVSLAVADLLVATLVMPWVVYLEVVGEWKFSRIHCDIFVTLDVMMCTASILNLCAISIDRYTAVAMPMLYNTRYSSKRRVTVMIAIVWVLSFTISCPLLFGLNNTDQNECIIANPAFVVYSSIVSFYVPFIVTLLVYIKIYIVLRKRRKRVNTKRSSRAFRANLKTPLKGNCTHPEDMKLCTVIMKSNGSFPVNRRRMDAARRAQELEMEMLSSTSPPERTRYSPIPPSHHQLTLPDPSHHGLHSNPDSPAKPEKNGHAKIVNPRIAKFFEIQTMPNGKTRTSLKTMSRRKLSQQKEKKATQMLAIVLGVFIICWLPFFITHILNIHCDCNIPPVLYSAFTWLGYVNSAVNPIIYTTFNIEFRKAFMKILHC
T2 sequence (P18901 whole entry): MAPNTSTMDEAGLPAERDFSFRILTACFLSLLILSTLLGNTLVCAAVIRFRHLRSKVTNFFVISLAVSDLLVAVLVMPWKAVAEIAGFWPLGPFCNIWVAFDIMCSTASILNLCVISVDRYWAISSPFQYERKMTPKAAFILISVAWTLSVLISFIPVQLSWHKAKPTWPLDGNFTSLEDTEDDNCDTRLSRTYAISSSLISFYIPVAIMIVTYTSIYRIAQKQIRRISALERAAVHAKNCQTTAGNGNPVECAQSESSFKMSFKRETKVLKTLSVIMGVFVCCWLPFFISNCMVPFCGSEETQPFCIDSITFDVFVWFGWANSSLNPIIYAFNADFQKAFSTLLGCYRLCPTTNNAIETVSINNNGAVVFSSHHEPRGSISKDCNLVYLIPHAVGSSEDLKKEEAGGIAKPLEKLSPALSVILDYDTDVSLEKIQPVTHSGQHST

SMILES | IC50 (D-1 receptor) [nM] | Ki (D-1 receptor) [nM] | Ki (dopamine D-2 receptor) [nM] | Ki (dopamine D-1 receptor [1]) [nM] | Ki (dopamine D-1 receptor [1]; read-out: D-1 Ki, rat caudate homogenate, [^125 I]SCH-23982) [nM] | Number of Rotations/2 h (dopamine D-1 receptor [2]; dose 3.2 μmol/kg, saline group 1118) [Rotations/2 h] | Number of Rotations/2 h (dopamine D-1 receptor [2]; [3]) [Rotations/2 h] | Number of Rotations/2 h (dopamine D-1 receptor [2]; dose 32.0 μmol/kg, saline group 1118) [Rotations/2 h] | Number of Rotations/2 h (dopamine D-1 receptor [2]; dose 3.0 μmol/kg, saline group 1011) [Rotations/2 h] | Number of Rotations/2 h (dopamine D-1 receptor [2]; dose 30.0 μmol/kg, saline group 1011) [Rotations/2 h]
COc1cc2c(cc1O)C1(CCCc3ccccc31)CNCC2 (centres unmarked) [Example 9, 8-Hydroxy-7-methoxy-1-(spiro-1'-1',2',3',4'-tetrahydronaphthalene)-2,3,4,5-tetrahydro-1H-3-benzazepine hydrochloride] | 15700 | 2730 | > 100000 | 2610 |  |  |  |  |  | 
COc1cc2c(cc1O)C1(CCCc3ccccc31)CN(C)CC2 (centres unmarked) [Example 10, 8-Hydroxy-7-methoxy-3-methyl-1-(spiro-1'-1',2',3',4'-tetrahydronaphthalene)-2,3,4,5-tetrahydro-1H-3-benzazepine hydrochloride] | 320 | 60 | 562000 | 50 |  |  |  |  |  | 
Oc1ccc2c(c1)C1(CCc3ccccc31)CNCC2 (centres unmarked) [Example 13, 8-Hydroxy-1-(spiro-1'-indan)-2,3,4,5-tetrahydro-1H-3-benzazepine hydrobromide] |  |  | > 100000 | 15900 |  |  |  |  |  | 
CN1CCc2ccc(O)cc2C2(CCc3ccccc32)C1 (centres unmarked) [Example 14, 8-Hydroxy-3-methyl-1-(spiro-1'-indan)-2,3,4,5-tetrahydro-1H-3-benzazepine hydrobromide] | 580 | 100 | > 100000 | 410 |  |  |  |  |  | 
Oc1cc2c(cc1O)C1(CCc3ccccc31)CNCC2 (centres unmarked) [Example 15, 7.8-Dihydroxy-1-(spiro-1'-indan)-2,3,4,5-tetrahydro-1H-3-benzazepine hydrobromide] |  |  | > 100000 |  | 650 |  |  |  |  | 
Oc1cc2c(cc1Br)CCNCC21CCc2ccccc21 (centres unmarked) [Example 17, 7-Bromo-8-hydroxy-1-(spiro-1'-indan)-2,3,4,5-tetrahydro-1H-2,3,4,5-tetrahydro-1H-3-benzazepine hydrochloride] | 830 | 140 | 18000 | 310 |  |  |  |  |  | 
CN1CCc2cc([N+](=O)[O-])c(O)cc2C2(CCc3ccccc32)C1 (centres unmarked) [Example 21, 8-Hydroxy-7-nitro-3-methyl-1-(spiro-1'-indan)-2,3,4,5-tetrahydro-1H-3-benzazepine hydrochloride] | 1380 | 240 | 39200 | 1320 |  |  |  |  |  | 
COc1cc2c(cc1O)C1(CCc3ccccc31)CNCC2 (centres unmarked) [Example 24, 8-Hydroxy-7-methoxy-1-(spiro-1'-indan)-2,3,4,5-tetrahydro-1H-3-benzazepine hydrochloride] | 530 | 130 | > 100000 | 810 |  |  |  |  |  | 
Oc1cc2c(cc1O)C1(CCCc3ccccc31)CNCC2 (centres unmarked) [Example 26, 7.8-Dihydroxy-1-(spiro-1'-1',2', 3',4'-tetrahydronapthalene)-2,3,4,5-tetrahydro-1H-3-benzazepine hydrobromide] |  |  | > 100000 | 16200 |  |  |  |  |  | 
CN1CCc2cc(O)c(O)cc2C2(CCCc3ccccc32)C1 (centres unmarked) [Example 27, 7,8-Dihydroxy-3-methyl-1-(spiro-1'-1',2',3',4'-tetrahydronapthalene)-2,3,4,5-tetrahydro-1H-3-benzazepine hydrobromide] | 2290 | 400 | > 100000 | 840 |  |  | 652 |  | 913 | 119
Oc1ccc2c(c1)C1(CCCc3ccccc31)CNCC2 (centres unmarked) [Example 28, 8-Hydroxy-1-(spiro-1'-1',2',3',4'-tetrahydronapthalene)-2,3,4,5-tetrahydro-1H-3-benzazepine hydrochloride] |  |  | 136000 | 23000 |  |  |  |  |  | 
CN1CCc2ccc(O)cc2C2(CCCc3ccccc32)C1 (centres unmarked) [Example 29, 8-Hydroxy-3-methyl-1-(spiro-1'-1',2',3',4'-tetrahydronapthalene)-2,3,4,5-tetrahydro-1H-3-benzazepine hydrochloride] | 4240 | 740 | 112000 | 440 |  |  |  |  |  | 
COc1cc2c(cc1O)C1(CCCCc3ccccc31)CN(C)CC2 (centres unmarked) [Example 32, 8-Hydroxy-7-methoxy-3-methyl-1-(spiro-5'-6',7',8',9'-tetrahydro-5'H-benzocycloheptene)-2,3,4,5-tetrahydro-1H-3-benzazepine hydrochloride] | 3240 | 560 | 112000 | 1500 |  |  |  |  |  | 
CN1CCc2ccc(O)cc2C2(CCOc3ccccc32)C1 (centres unmarked) [Example 136, 8-Hydroxy-3-methyl-1-(spiro-4'-(3',4'-dihydro-2'-H-1'-benzopyran))-2,3,4,5-tetrahydro-1H-3-benzazepine hydrochloride] | 4340 | 750 | > 100000 | 1670 |  |  |  |  |  | 
CN1CCc2cc(Br)c(O)cc2C2(CCOc3ccccc32)C1 (centres unmarked) [Example 137, 7-Bromo-8-hydroxy-3-methyl-1-(spiro-4'-(3',4'-dihydro-2'H-1'-benzopyran))-2,3,4,5-tetrahydro-1H-3-benzazepine hydrochloride] | 140 | 30 | > 100000 | 20 |  |  |  |  |  | 

Stronger by Ki (dopamine D-2 receptor), values ahead:

IC50 (D-1 receptor) [nM] | Ki (D-1 receptor) [nM] | Ki (dopamine D-2 receptor) [nM] | Ki (dopamine D-1 receptor [1]) [nM] | Ki (dopamine D-1 receptor [1]; read-out: D-1 Ki, rat caudate homogenate, [^125 I]SCH-23982) [nM] | Number of Rotations/2 h (dopamine D-1 receptor [2]; dose 3.2 μmol/kg, saline group 1118) [Rotations/2 h] | Number of Rotations/2 h (dopamine D-1 receptor [2]; [3]) [Rotations/2 h] | Number of Rotations/2 h (dopamine D-1 receptor [2]; dose 32.0 μmol/kg, saline group 1118) [Rotations/2 h] | Number of Rotations/2 h (dopamine D-1 receptor [2]; dose 3.0 μmol/kg, saline group 1011) [Rotations/2 h] | Number of Rotations/2 h (dopamine D-1 receptor [2]; dose 30.0 μmol/kg, saline group 1011) [Rotations/2 h] | SMILES
920 | 160 | 14600 | 680 |  |  |  |  |  |  | Oc1cc2c(cc1Br)CCNCC21CCCc2ccccc21 (centres unmarked) [Example 30, 7-Bromo-8-hydroxy-1-(spiro-1'-1',2',3',4'-tetrahydronapthalene)-2,3,4,5-tetrahydro-1H-3-benzazepine hydrochloride]
140 | 20 | 10100 | 30 |  |  |  |  |  |  | CN1CCc2cc(Br)c(O)cc2C2(CCCc3ccccc32)C1 (centres unmarked) [Example 31, 7-Bromo-8-hydroxy-3-methyl-1-(spiro-1'-1',2',3',4'-tetrahydronapthalene)-2,3,4,5-tetrahydro-1H-3-benzazepine hydrochloride]
130 | 20 | 9500 | 160 |  |  |  |  |  |  | COc1cc2c(cc1O)C1(CCc3ccccc31)CN(C)CC2 (centres unmarked) [Example 25, 8-Hydroxy-7-methoxy-3-methyl-1-(spiro-1'-indan)-2,3,4,5-tetrahydro-1H-3-benzazepine hydrochloride]
 |  | 8800 | 3410 |  |  |  |  |  |  | CN1CCc2ccc(O)cc2C2(CCCCc3ccccc32)C1 (centres unmarked) [Example 33, 8-Hydroxy-3-methyl-1-(spiro-5'-6',7',8',9'-tetrahydro-5'H-benzocycloheptene)-2,3,4,5-tetrahydro-1H-3-benzazepine hydrochloride]
 |  | 7500 | 940 |  |  |  |  |  |  | CN1CCc2cc(Br)c(O)cc2C2(CCCCc3ccccc32)C1 (centres unmarked) [Example 35, 7-Bromo-8-hydroxy-3-methyl-1-(spiro-5'-6',7',8',9'-tetrahydro-5'H-benzocycloheptene)-2,3,4,5-tetrahydro-1H-3-benzazepine hydrochloride]
230 | 40 | 6800 | 110 |  |  |  |  |  |  | CSc1cc2c(cc1O)C1(CCCc3ccccc31)CN(C)CC2 (centres unmarked) [Example 11, 8-Hydroxy-7-(methylthio)-3-methyl-1-(spiro-1'-1',2',3',4'-tetrahydronaphthalene)-2,3,4,5-tetrahydro-1H-3-benzazepine hydrochloride]
50 | 10 | 5900 | 10 |  | 491 | 412 | 154 |  |  | CN1CCc2cc(Br)c(O)cc2C2(CCc3ccccc32)C1 (centres unmarked) [Example 18, 7-Bromo-8-hydroxy-3-methyl-1-(spiro-1'-indan)-2,3,4,5-tetrahydro-1H-3-benzazepine hydrochloride]
510 | 90 | 5500 | 330 |  |  |  |  |  |  | CN1CCc2cc(O)c(O)cc2C2(CCc3ccccc32)C1 (centres unmarked) [Example 16, 7,8-Dihydroxy-3-methyl-1-(spiro-1'-indan)-2,3,4,5-tetrahydro-1H-3-benzazepine formate]
 |  | 4200 | 8000 |  |  |  |  |  |  | CN1CCc2cc(O)c(O)cc2C2(CCCCc3ccccc32)C1 (centres unmarked) [Example 34, 7.8-Dihydroxy-3-methyl-1-(spiro-5'-6',7',8',9'-tetrahydro-5'H-benzocycloheptene)-2,3,4,5-tetrahydro-1H-3-benzazepine hydrobromide]
960 | 170 | 660 | 160 |  |  |  |  |  |  | COc1cc2c(cc1O)C1(CCOc3ccccc31)CN(C)CC2 (centres unmarked) [Example 135, 8-Hydroxy-7-methoxy-3-methyl-1-(spiro-4'-(3',4'-dihydro-2'H-1'-benzopyran))-2,3,4,5-tetrahydro-1H-3-benzazepine hydrochloride]
